Assay results published in patent US20250368625A1, “PIPERAZINES” (Grünenthal GmbH, priority 2024, published 2025).
pEC50: −log10 of the molar value.

Molecular target: T1, human SSTR4 (Homo sapiens, UniProt P31391)
T1 construct: expressed in transfected cells; host or cells: CHO-K1
Experiment: hSSTR4 cAMP assay (cAMP accumulation, LANCE Ultra cAMP kit, CHO-K1 human SSTR4 Gi cell line)
Assay type: cell-based
Settings: functional agonism, forskolin 10 μM stimulated CHO-K1 human SSTR4 Gi cells, 30 min at 25° C., at least duplicate, averaged; read-out: hSSTR4 EC50
Method: cAMP accumulation assay using a CHO-K1 human SSTR4 Gi cell line.
Quantification of intracellular cAMP was performed using the LANCE Ultra cAMP assay kit from Revvity according to the manufacturer's instructions. CHO-K1 human SSTR4 Gi cell were either seeded in a density of 3K cells per well into a 384 well plate and incubated at 37° C. and 5% CO2 for 18-20 h or a stock of frozen cells were defrosted and seeded in a density of 5K cells per well without any further cultivation directly prior to the assay in a total volume of 5 μL in stimulation buffer. For pre-cultured cells, medium was replaced with 5 μL stimulation buffer before the assay. Cells were then stimulated with forskolin (final concentration 10 μM) and test compound (SSTR4 agonist) in increasing concentrations in duplicates for 30 min at 25° C. After stimulation, cells were lysed by addition of 10 μL of detection buffer (provided with the kit) and cell lysates were further diluted to ensure final cAMP concentrations fitted well into the dynamic range of the test kit. 10 μL of the diluted lysates were then added to respective wells of an OptiPlate-384 microplate. Thereafter, 5 μL of 4× Eu-cAMP tracer working solution was added, followed by addition of 5 μL of ULight-anti-cAMP working solution. The plate was then incubated for 1 h at 25° C. before reading on a TR-FRET microplate instrument. Data were normalized to cAMP high (forskolin only) and low control (forskolin+100 nM SST14) before fitting to a 4-Paramter logistic function.
All data was generated according to the cAMP assay conditions described above in at least duplicate and results are averaged and rounded to two significant figures.

T1 sequence (P31391 whole entry): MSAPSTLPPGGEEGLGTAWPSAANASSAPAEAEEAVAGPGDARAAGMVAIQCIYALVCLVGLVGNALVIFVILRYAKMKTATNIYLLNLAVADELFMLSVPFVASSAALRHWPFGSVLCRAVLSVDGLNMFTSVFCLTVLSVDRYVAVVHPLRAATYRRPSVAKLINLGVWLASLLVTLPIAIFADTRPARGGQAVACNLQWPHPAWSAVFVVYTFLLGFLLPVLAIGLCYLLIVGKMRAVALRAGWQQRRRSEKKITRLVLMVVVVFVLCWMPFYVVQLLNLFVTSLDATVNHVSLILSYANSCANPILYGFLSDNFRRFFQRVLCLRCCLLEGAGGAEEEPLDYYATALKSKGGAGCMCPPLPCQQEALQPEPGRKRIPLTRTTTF

SMILES	pEC50
Cc1cccn2c(C(C)(C)NC(=O)[C@@H]3CN(C(=O)c4cnn(C)c4)CCN3)ncc12 [SC-083, (S)-4-(1-methyl-1H-pyrazole-4-carbonyl)-N-(2-(8-methylimidazo[1,5-a]pyridin-3-yl)propan-2-yl)piperazine-2-carboxamide]	5.17
Cc1cccn2c(C(C)(C)NC(=O)[C@@H]3CN(C(=O)c4ccnn4C)CCN3)ncc12 [SC-082, (S)-4-(1-methyl-1H-pyrazole-5-carbonyl)-N-(2-(8-methylimidazo[1,5-a]pyridin-3-yl)propan-2-yl)piperazine-2-carboxamide]	5.27
Cc1cccn2c(C(C)(C)NC(=O)[C@@H]3CN(C(=O)C4CCOCC4)CCN3)ncc12 [SC-078, (S)-N-(2-(8-methylimidazo[1,5-a]pyridin-3-yl)propan-2-yl)-4-(tetrahydro-2H-pyran-4-carbonyl)piperazine-2-carboxamide]	5.19
Cc1ccc(CN2CCNC[C@H]2C(=O)NC(C)(C)c2ncc3c(C)cccn23)cn1 [SC-088, (S)-N-(2-(8-methylimidazo[1,5-a]pyridin-3-yl)propan-2-yl)-1-((6-methylpyridin-3-yl)methyl)piperazine-2-carboxamide]	9.10
Cc1cccn2c(C(C)(C)NC(=O)[C@@H]3CNCCN3Cc3ccccc3)ncc12 [SC-085, (S)-1-benzyl-N-(2-(8-methylimidazo[1,5-a]pyridin-3-yl)propan-2-yl)piperazine-2-carboxamide]	9.96
Cc1cccn2c(C(C)(C)NC(=O)C3CNCCN3Cc3cccnn3)ncc12 (racemic) [SC-004, rac-N-(2-(8-methylimidazo[1,5-a]pyridin-3-yl)propan-2-yl)-1-(pyridazin-3-ylmethyl)piperazine-2-carboxamide]	8.13
Cc1cccn2c(C(C)(C)NC(=O)[C@@H]3CN(C)CCN3CC3CCOCC3)ncc12 [SC-047, (S)-4-methyl-N-(2-(8-methylimidazo[1,5-a]pyridin-3-yl)propan-2-yl)-1-((tetrahydro-2H-pyran-4-yl)methyl)piperazine-2-carboxamide]	9.35
Cc1cccn2c(C(C)(C)NC(=O)C3CNCCN3C(=O)c3cnn(C)c3)ncc12 (racemic) [SC-010, rac-1-(1-methyl-1H-pyrazole-4-carbonyl)-N-(2-(8-methylimidazo[1,5-a]pyridin-3-yl)propan-2-yl)piperazine-2-carboxamide]	5.46
Cc1cccn2c(C(C)(C)NC(=O)[C@@H]3CNCCN3C(C)C)ncc12 [SC-035, (S)-1-isopropyl-N-(2-(8-methylimidazo[1,5-a]pyridin-3-yl)propan-2-yl)piperazine-2-carboxamide]	9.46
Cc1cccn2c(C(C)(C)NC(=O)[C@@H]3CN(C(=O)CC4CCOCC4)CCN3)ncc12 [SC-079, (S)-N-(2-(8-methylimidazo[1,5-a]pyridin-3-yl)propan-2-yl)-4-(2-(tetrahydro-2H-pyran-4-yl)acetyl)piperazine-2-carboxamide]	4.82
Cc1cccn2c(C(C)(C)NC(=O)[C@@H]3CN(C)CCN3CC(F)(F)F)ncc12 [SC-045, (S)-4-methyl-N-(2-(8-methylimidazo[1,5-a]pyridin-3-yl)propan-2-yl)-1-(2,2,2-trifluoroethyl)piperazine-2-carboxamide]	8.85
Cc1cccn2c(C(C)(C)NC(=O)[C@@H]3CN(C(=O)c4cnn(C(C)C)c4)CCN3)ncc12 [SC-081, (S)-4-(1-isopropyl-1H-pyrazole-4-carbonyl)-N-(2-(8-methylimidazo[1,5-a]pyridin-3-yl)propan-2-yl)piperazine-2-carboxamide]	< 5.00
Cc1cccn2c(C(C)(C)NC(=O)[C@@H]3CN(C(C)C)CCN3)ncc12 [SC-052, (S)-4-isopropyl-N-(2-(8-methylimidazo[1,5-a]pyridin-3-yl)propan-2-yl)piperazine-2-carboxamide]	7.66
Cc1cccn2c(C(C)(C)NC(=O)C3CNCCN3Cc3ncccn3)ncc12 (racemic) [SC-001, rac-N-(2-(8-methylimidazo[1,5-a]pyridin-3-yl)propan-2-yl)-1-(pyrimidin-2-ylmethyl)piperazine-2-carboxamide]	7.89
Cc1cccn2c(C(C)(C)NC(=O)[C@@H]3CN(CC(F)F)CCN3)ncc12 [SC-050, (S)-4-(2,2-difluoroethyl)-N-(2-(8-methylimidazo[1,5-a]pyridin-3-yl)propan-2-yl)piperazine-2-carboxamide]	5.09
COCCN1CCN[C@H](C(=O)NC(C)(C)c2ncc3c(C)cccn23)C1 [SC-051, (S)-4-(2-methoxyethyl)-N-(2-(8-methylimidazo[1,5-a]pyridin-3-yl)propan-2-yl)piperazine-2-carboxamide]	6.00
Cc1cccn2c(C(C)(C)NC(=O)C3CNCCN3C(=O)C3CC3)ncc12 (racemic) [SC-012, rac-1-(cyclopropanecarbonyl)-N-(2-(8-methylimidazo[1,5-a]pyridin-3-yl)propan-2-yl)piperazine-2-carboxamide]	5.18
Cc1cccn2c(C(C)(C)NC(=O)[C@@H]3CNCCN3CC(C)(F)F)ncc12 [SC-019, (S)-1-(2,2-difluoropropyl)-N-(2-(8-methylimidazo[1,5-a]pyridin-3-yl)propan-2-yl)piperazine-2-carboxamide]	9.24
Cc1cccn2c(C(C)(C)NC(=O)C3CNCCN3Cc3ccncn3)ncc12 (racemic) [SC-008, rac-N-(2-(8-methylimidazo[1,5-a]pyridin-3-yl)propan-2-yl)-1-(pyrimidin-4-ylmethyl)piperazine-2-carboxamide]	8.54
CCN1CCNC[C@H]1C(=O)NC(C)(C)c1n[nH]c2c(C)cccc12 [SC-041, (S)-1-ethyl-N-(2-(7-methyl-1H-indazol-3-yl)propan-2-yl)piperazine-2-carboxamide]	9.66

Now from value to molecule:

pEC50	SMILES
9.12	CC(C)(NC(=O)[C@@H]1CNCCN1CC1CC(F)(F)C1)c1ncc2c(Cl)cccn12 [SC-107, (S)-N-(2-(8-chloroimidazo[1,5-a]pyridin-3-yl)propan-2-yl)-1-((3,3-difluorocyclobutyl)methyl)piperazine-2-carboxamide]
6.31	CN1CCN[C@H](C(=O)NC(C)(C)c2ncc3c(C(F)(F)F)cccn23)C1 [SC-112, (S)-4-methyl-N-(2-(8-(trifluoromethyl)imidazo[1,5-a]pyridin-3-yl)propan-2-yl)piperazine-2-carboxamide]
7.59	CC(C)(NC(=O)[C@@H]1CNCCN1CC1CC(F)(F)C1)c1ncc2c(C(F)(F)F)cccn12 [SC-113, (S)-1-((3,3-difluorocyclobutyl)methyl)-N-(2-(8-(trifluoromethyl)imidazo[1,5-a]pyridin-3-yl)propan-2-yl)piperazine-2-carboxamide]
8.33	Cc1cccc2c(C(C)(C)NC(=O)[C@@H]3CNCCN3C)noc12 [SC-124, (S)-1-methyl-N-(2-(7-methylbenzo[d]isoxazol-3-yl)propan-2-yl)piperazine-2-carboxamide]
8.42	COc1cccn2c(C(C)(C)NC(=O)[C@@H]3CNCCN3C)ncc12 [SC-128, (S)-N-(2-(8-methoxyimidazo[1,5-a]pyridin-3-yl)propan-2-yl)-1-methylpiperazine-2-carboxamide]
9.47	Cc1cccn2c(C(C)(C)NC(=O)[C@@H]3CNCCN3CC3CC(F)(F)C3)nc(C)c12 [SC-115, (S)-1-((3,3-difluorocyclobutyl)methyl)-N-(2-(1,8-dimethylimidazo[1,5-a]pyridin-3-yl)propan-2-yl)piperazine-2-carboxamide]
8.96	Cc1cccn2c(C(C)(C)NC(=O)[C@@H]3CNCCN3CC(F)F)ncc12 [SC-127, (S)-1-(2,2-difluoroethyl)-N-(2-(8-methylimidazo[1,5-al]pyridin-3-yl)propan-2-yl)piperazine-2-carboxamide]
6.27	CN1CCN[C@H](C(=O)NC(C)(C)c2ncc3c(C4CC4)cccn23)C1 [SC-119, (S)-N-(2-(8-cyclopropylimidazo[1,5-a]pyridin-3-yl)propan-2-yl)-4-methylpiperazine-2-carboxamide]
7.44	CN1CCNC[C@H]1C(=O)NC(C)(C)c1ncc2c(C(F)(F)F)cccn12 [SC-110, (S)-1-methyl-N-(2-(8-(trifluoromethyl)imidazo[1,5-a]pyridin-3-yl)propan-2-yl)piperazine-2-carboxamide]
9.04	CN1CCNC[C@H]1C(=O)NC(C)(C)c1nn(C)c2ccccc12 [SC-100, (S)-1-methyl-N-(2-(1-methyl-1H-indazol-3-yl)propan-2-yl)piperazine-2-carboxamide]
7.82	CN1CCNC[C@H]1C(=O)NC(C)(C)c1ncc2c(C3CC3)cccn12 [SC-118, (S)-N-(2-(8-cyclopropylimidazo[1,5-a]pyridin-3-yl)propan-2-yl)-1-methylpiperazine-2-carboxamide]
8.55	CN1CCNC[C@H]1C(=O)NC(C)(C)c1n[nH]c2c(F)cccc12 [SC-129, (S)-N-(2-(7-fluoro-1H-indazol-3-yl)propan-2-yl)-1-methylpiperazine-2-carboxamide]
7.68	CN1CCN[C@H](C(=O)NC(C)(C)c2nn(C)c3ccccc23)C1 [SC-099, (S)-4-methyl-N-(2-(1-methyl-1H-indazol-3-yl)propan-2-yl)piperazine-2-carboxamide]
